In patent publication US20260184710A1, “CASITAS B-LINEAGE LYMPHOMA PROTOONCOGENE B (CBL-B) DEGRADING COMPOUNDS AND ASSOCIATED METHODS OF USE” (Arvinas Operations, Inc., priority 2022, published 2026):

Molecular target: T1, Cbl-b (Homo sapiens, UniProt Q13191)
T1 construct: Cbl-b-HiBit KI Jurkat Cells were purchased from Promega; host or cells: Cbl-b-HiBiT knock-in Jurkat cells
Experiment: Cbl-b Degradation Method B (Nano-Glo HiBiT lytic detection)
Type: cell-based
Conditions: Cbl-b-HiBit KI Jurkat Cells, incubated at least 6-24 hours; for DC50: half maximal degradation, read-out: Cbl-b Degredation Method B IC50; for Dmax: maximum degradation observed, read-out: Cbl-b Degredation Method B Dmax (%)
How it was run: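 Cbl-b-HiBiT knock-in Jurkat cells (20,000/well) were treated after ~24 h plating with an 11-point 1:3 series for 6-24 h at 37° C. Remaining Cbl-b measured by Nano-Glo HiBiT lytic luminescence. DC50 and Dmax expressed as % of control.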

T1 sequence (Q13191 whole entry): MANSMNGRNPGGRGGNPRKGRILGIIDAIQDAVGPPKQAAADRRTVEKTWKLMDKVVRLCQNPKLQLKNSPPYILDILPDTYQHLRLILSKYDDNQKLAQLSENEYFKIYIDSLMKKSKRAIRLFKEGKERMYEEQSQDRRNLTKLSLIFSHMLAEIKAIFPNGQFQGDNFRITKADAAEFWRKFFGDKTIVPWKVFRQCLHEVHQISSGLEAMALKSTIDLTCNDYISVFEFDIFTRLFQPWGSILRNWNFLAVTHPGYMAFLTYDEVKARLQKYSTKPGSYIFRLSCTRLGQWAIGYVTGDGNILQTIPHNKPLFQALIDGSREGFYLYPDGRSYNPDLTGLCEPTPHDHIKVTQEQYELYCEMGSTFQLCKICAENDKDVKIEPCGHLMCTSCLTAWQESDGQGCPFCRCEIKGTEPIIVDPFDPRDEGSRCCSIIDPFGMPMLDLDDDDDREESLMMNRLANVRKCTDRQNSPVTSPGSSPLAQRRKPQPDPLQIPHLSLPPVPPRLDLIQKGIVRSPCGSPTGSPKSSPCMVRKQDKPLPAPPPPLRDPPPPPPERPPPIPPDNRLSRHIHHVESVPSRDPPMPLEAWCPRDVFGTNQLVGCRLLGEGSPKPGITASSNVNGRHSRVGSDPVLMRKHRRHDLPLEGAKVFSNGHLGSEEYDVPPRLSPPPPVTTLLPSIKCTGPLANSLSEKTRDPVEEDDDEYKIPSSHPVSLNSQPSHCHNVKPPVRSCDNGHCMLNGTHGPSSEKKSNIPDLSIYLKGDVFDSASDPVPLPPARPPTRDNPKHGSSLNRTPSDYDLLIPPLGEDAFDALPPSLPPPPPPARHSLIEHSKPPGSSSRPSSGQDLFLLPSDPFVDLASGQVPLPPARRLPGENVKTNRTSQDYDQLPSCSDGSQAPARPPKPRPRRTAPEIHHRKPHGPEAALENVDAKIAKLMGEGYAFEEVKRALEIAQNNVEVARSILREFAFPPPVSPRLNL

Structure (SMILES)	DC50 [nM]	Dmax [%]
Cn1cnnc1C[C@]1(c2cccc(N3Cc4c(cc(CN5CCN(C[C@H]6CC[C@H](OC7CCN(c8ccnc(C(=O)NC9CCC(=O)NC9=O)c8)CC7)CC6)CC5)cc4C(F)(F)F)C3=O)c2)C[C@H](C#N)C1 (stereo partly drawn) [Example 200, N-(2,6-dioxopiperidin-3-yl)-4-(4-{[(1r,4r)-4-({4-[(3-oxo-2-{3-[(1r,3r)-3-cyano-1-[(4-methyl-4H-1,2,4-triazol-3-yl)methyl]cyclobutyl]phenyl}-7-(trifluoromethyl)-2,3-dihydro-1H-isoindol-5-yl)methyl]piperazin-1-yl}methyl)cyclohexyl]oxy}piperidin-1-yl)pyridine-2-carboxamide]	> 500	
Cn1cnnc1C[C@]1(c2cccc(N3Cc4c(cc(CN5CCN(C[C@H]6CC[C@H](OC7CCN(c8ccc(C9CCC(=O)NC9=O)c(F)c8)CC7)CC6)CC5)cc4C(F)(F)F)C3=O)c2)C[C@H](C#N)C1 (stereo partly drawn) [Example 201, (1r,3r)-3-[(4-methyl-4H-1,2,4-triazol-3-yl)methyl]-3-(3-{1-oxo-6-[(4-{[(1r,4r)-4-({1-[4-(2,6-dioxopiperidin-3-yl)-3-fluorophenyl]piperidin-4-yl}oxy)cyclohexyl]methyl}piperazin-1-yl)methyl]-4-(trifluoromethyl)-2,3-dihydro-1H-isoindol-2-yl}phenyl)cyclobutane-1-carbonitrile]	> 500	
Cn1cnnc1C[C@]1(c2cccc(N3Cc4c(cc(CN5CCN(C[C@H]6CC[C@H](OC7CCN(c8ccc(F)c(C(=O)NC9CCC(=O)NC9=O)c8)CC7)CC6)CC5)cc4C(F)(F)F)C3=O)c2)C[C@H](C#N)C1 (stereo partly drawn) [Example 202, N-(2,6-dioxopiperidin-3-yl)-2-fluoro-5-(4-{[(1r,4r)-4-({4-[(3-oxo-2-{3-[(1r,3r)-3-cyano-1-[(4-methyl-4H-1,2,4-triazol-3-yl)methyl]cyclobutyl]phenyl}-7-(trifluoromethyl)-2,3-dihydro-1H-isoindol-5-yl)methyl]piperazin-1-yl}methyl)cyclohexyl]oxy}piperidin-1-yl)benzamide]	> 500	
Cn1cnnc1C[C@]1(c2cccc(N3Cc4c(cc(CN5CCN(C[C@H]6CC[C@H](OC7CCN(c8ccc(C9CCC(=O)NC9=O)cc8)CC7)CC6)CC5)cc4C(F)(F)F)C3=O)c2)C[C@H](C#N)C1 (stereo partly drawn) [Example 206, (1r,3r)-3-[(4-methyl-4H-1,2,4-triazol-3-yl)methyl]-3-(3-{1-oxo-6-[(4-{[(1r,4r)-4-({1-[4-(2,6-dioxopiperidin-3-yl)phenyl]piperidin-4-yl}oxy)cyclohexyl]methyl}piperazin-1-yl)methyl]-4-(trifluoromethyl)-2,3-dihydro-1H-isoindol-2-yl}phenyl)cyclobutane-1-carbonitrile]	> 500	
Cn1cnnc1CC1(c2cccc(-n3cc4ccc(CN5CCN(C[C@H]6CC[C@H](OC7CCN(c8ccc9c(c8F)CN(C8CCC(=O)NC8=O)C9=O)CC7)CC6)CC5)cc4n3)c2)COC1 (stereo partly drawn) [Example 207, 3-[4-fluoro-1-oxo-5-(4-{[(1r,4r)-4-[(4-{[2-(3-{3-[(4-methyl-4H-1,2,4-triazol-3-yl)methyl]oxetan-3-yl}phenyl)-2H-indazol-6-yl]methyl}piperazin-1-yl)methyl]cyclohexyl]oxy}piperidin-1-yl)-2,3-dihydro-1H-isoindol-2-yl]piperidine-2,6-dione]	> 500	
Cn1cnnc1C[C@]1(c2cccc(N3Cc4c(cc(CN5CCN(C[C@H]6CC[C@H](OC7CCN(c8ccc(C9CCC(=O)NC9=O)cn8)CC7)CC6)CC5)cc4C(F)(F)F)C3=O)c2)C[C@H](C#N)C1 (stereo partly drawn) [Example 210, (1r,3r)-3-[(4-methyl-4H-1,2,4-triazol-3-yl)methyl]-3-(3-{1-oxo-6-[(4-{[(1r,4r)-4-({1-[5-(2,6-dioxopiperidin-3-yl)pyridin-2-yl]piperidin-4-yl}oxy)cyclohexyl]methyl}piperazin-1-yl)methyl]-4-(trifluoromethyl)-2,3-dihydro-1H-isoindol-2-yl}phenyl)cyclobutane-1-carbonitrile]	> 500	
Cn1cnnc1C[C@]1(c2cccc(N3Cc4c(cc(CN5CCN(C[C@H]6CC[C@H](OC7CCN(c8ccc(C9CCC(=O)NC9=O)nc8)CC7)CC6)CC5)cc4C(F)(F)F)C3=O)c2)C[C@H](C#N)C1 (stereo partly drawn) [Example 213, (1r,3r)-3-[(4-methyl-4H-1,2,4-triazol-3-yl)methyl]-3-(3-{1-oxo-6-[(4-{[(1r,4r)-4-({1-[6-(2,6-dioxopiperidin-3-yl)pyridin-3-yl]piperidin-4-yl}oxy)cyclohexyl]methyl}piperazin-1-yl)methyl]-4-(trifluoromethyl)-2,3-dihydro-1H-isoindol-2-yl}phenyl)cyclobutane-1-carbonitrile]	> 500	
CC1c2nc(N3CCC(O[C@H]4CC[C@H](CN5CCN(Cc6cc(C(F)(F)F)c7cn(-c8cccc(C9(Cc%10nncn%10C)COC9)c8)nc7c6)CC5)CC4)CC3)ccc2C(=O)N1C1CCC(=O)NC1=O (stereo partly drawn) [Example 216, 3-[7-methyl-5-oxo-2-(4-{[(1r,4r)-4-[(4-{[2-(3-{3-[(4-methyl-4H-1,2,4-triazol-3-yl)methyl]oxetan-3-yl}phenyl)-4-(trifluoromethyl)-2H-indazol-6-yl]methyl}piperazin-1-yl)methyl]cyclohexyl]oxy}piperidin-1-yl)-5H,6H,7H-pyrrolo[3,4-b]pyridin-6-yl]piperidine-2,6-dione]	< 5	< 35
CC1c2nc(N3CCC(O[C@H]4CC[C@@H](CN5C[C@@H]6C[C@H]5CN6Cc5cc6c(c(C(F)(F)F)c5)CN(c5cccc(C7(Cc8nncn8C)CC7)c5)C6=O)CC4)CC3)ccc2C(=O)N1C1CCC(=O)NC1=O (stereo partly drawn) [Example 218, 3-[7-methyl-5-oxo-2-(4-{[(1r,4r)-4-{[(1S,4S)-5-{[2-(3-{1-[(4-methyl-4H-1,2,4-triazol-3-yl)methyl]cyclopropyl}phenyl)-3-oxo-7-(trifluoromethyl)-2,3-dihydro-1H-isoindol-5-yl]methyl}-2,5-diazabicyclo[2.2.1]heptan-2-yl]methyl}cyclohexyl]oxy}piperidin-1-yl)-5H,6H,7H-pyrrolo[3,4-b]pyridin-6-yl]piperidine-2,6-dione]	5 to 50	35 to 70
CC1c2nc(N3CCC(O[C@H]4CC[C@H](CN5C[C@H]6C[C@@H]5CN6Cc5cc6c(c(C(F)(F)F)c5)CN(c5cccc(C7(Cc8nncn8C)CC7)c5)C6=O)CC4)CC3)ccc2C(=O)N1C1CCC(=O)NC1=O (stereo partly drawn) [Example 222, 3-[7-methyl-5-oxo-2-(4-{[(1r,4r)-4-{[(1R,4R)-5-{[2-(3-{1-[(4-methyl-4H-1,2,4-triazol-3-yl)methyl]cyclopropyl}phenyl)-3-oxo-7-(trifluoromethyl)-2,3-dihydro-1H-isoindol-5-yl]methyl}-2,5-diazabicyclo[2.2.1]heptan-2-yl]methyl}cyclohexyl]oxy}piperidin-1-yl)-5H,6H,7H-pyrrolo[3,4-b]pyridin-6-yl]piperidine-2,6-dione]	< 5	35 to 70
CC1c2nc(N3CCC(O[C@H]4CC[C@H](CN5C[C@H]6C[C@@H]5CN6Cc5cc6c(c(C(F)(F)F)c5)CN(c5cccc(C7(Cc8nncn8C)CCC7)c5)C6=O)CC4)CC3)ccc2C(=O)N1C1CCC(=O)NC1=O (stereo partly drawn) [Example 225, 3-[7-methyl-5-oxo-2-(4-{[(1r,4r)-4-{[(1R,4R)-5-{[2-(3-{1-[(4-methyl-4H-1,2,4-triazol-3-yl)methyl]cyclobutyl}phenyl)-3-oxo-7-(trifluoromethyl)-2,3-dihydro-1H-isoindol-5-yl]methyl}-2,5-diazabicyclo[2.2.1]heptan-2-yl]methyl}cyclohexyl]oxy}piperidin-1-yl)-5H,6H,7H-pyrrolo[3,4-b]pyridin-6-yl]piperidine-2,6-dione]	< 5	35 to 70
Cn1cnnc1C[C@]1(c2cccc(N3Cc4c(cc(CN5CCN(C[C@H]6CC[C@H](OC7CCN(c8ccc9c(ccn9C9CCC(=O)NC9=O)c8)CC7)CC6)CC5)cc4C(F)(F)F)C3=O)c2)C[C@H](C#N)C1 (stereo partly drawn) [Example 226, (1r,3r)-3-[(4-methyl-4H-1,2,4-triazol-3-yl)methyl]-3-(3-{1-oxo-6-[(4-{[(1r,4r)-4-({1-[1-(2,6-dioxopiperidin-3-yl)-1H-indol-5-yl]piperidin-4-yl}oxy)cyclohexyl]methyl}piperazin-1-yl)methyl]-4-(trifluoromethyl)-2,3-dihydro-1H-isoindol-2-yl}phenyl)cyclobutane-1-carbonitrile]	< 5	35 to 70
Cc1cc(N2CCC(O[C@H]3CC[C@H](CN4CCN(Cc5cc6c(c(C(F)(F)F)c5)CN(c5cccc(C7(Cc8nncn8C)CC7)c5)C6=O)C(C)(C)C4)CC3)CC2)c(F)c2c1C(=O)N(C1CCC(=O)NC1=O)C2 (stereo partly drawn) [Example 227, 3-[4-fluoro-7-methyl-1-oxo-5-(4-{[(1r,4r)-4-[(3,3-dimethyl-4-{[2-(3-{1-[(4-methyl-4H-1,2,4-triazol-3-yl)methyl]cyclopropyl}phenyl)-3-oxo-7-(trifluoromethyl)-2,3-dihydro-1H-isoindol-5-yl]methyl}piperazin-1-yl)methyl]cyclohexyl]oxy}piperidin-1-yl)-2,3-dihydro-1H-isoindol-2-yl]piperidine-2,6-dione]	< 5	> 70
CC(C)n1c(=O)n(C2CCC(=O)NC2=O)c2ccc(N3CCC(O[C@H]4CC[C@H](CN5CCN(Cc6cc7c(c(C(F)(F)F)c6)CN(c6cccc([C@]8(Cc9nncn9C)C[C@@H](C#N)C8)c6)C7=O)CC5)CC4)CC3)cc21 (stereo partly drawn) [Example 228, (1r,3r)-3-[(4-methyl-4H-1,2,4-triazol-3-yl)methyl]-3-(3-{1-oxo-6-[(4-{[(1r,4r)-4-({1-[1-(2,6-dioxopiperidin-3-yl)-2-oxo-3-(propan-2-yl)-2,3-dihydro-1H-1,3-benzodiazol-5-yl]piperidin-4-yl}oxy)cyclohexyl]methyl}piperazin-1-yl)methyl]-4-(trifluoromethyl)-2,3-dihydro-1H-isoindol-2-yl}phenyl)cyclobutane-1-carbonitrile]	< 5	> 70
